Measured values published in the pKa sets of Baltruschat and Czodrowski (2020).

Settings: acidic group

In order of falling pKa:
1. O=C1CCc2cc(Cl)ccc2C1  12.5
2. c1ccc(-c2nc3ccccc3[nH]2)nc1  12.1
3. COc1ccc(C(=O)c2cc[nH]n2)cc1  12.1
4. CC(C)(C)C(=O)CC(=O)C(C)(C)C  11.8
5. Cc1cccc(NC=S)c1  11.6
6. O=C(Cc1ccccc1)c1cc[n+]([CH-]c2cccc([N+](=O)[O-])c2)cc1  11.6
7. CN(C)Cc1cc(C(C)(C)C)ccc1O  11.5
8. NC(Cc1c[nH]c(=S)[nH]1)C(=O)[O-] (stereo unspecified)  11.4
9. C/C(=C(/S)CCO)N(C=O)Cc1cnc(C)nc1N  11.4
10. Oc1c2c(nn1-c1ccccc1)CCCC2  11.4
11. [O-]c1nc(S)c2[nH]cnc2n1  11.4
12. NC(=N\O)/C(N)=N/O  11.3
13. O=C([O-])/C(=N\O)c1ccccc1  10.9
14. CC(=O)c1ccccc1NN=C1C(=O)CC(C)(C)CC1=O  10.5
15. O=C(Oc1cccc(Cl)c1)C1c2ccccc2-c2ccccc21  10.2
16. O=C1CCc2cc([N+](=O)[O-])ccc2C1  10.1
17. O=C(Oc1ccc([N+](=O)[O-])cc1)C1c2ccccc2-c2ccccc21  9.9
18. CC1(C)C(=O)NC(=O)C1(C)C  9.7
19. Oc1cccc(-c2ccccc2)c1  9.59
20. O=C(CC(=O)c1ccccc1)Nc1ccccc1  9.54
21. [O-][n+]1ccc(NO)c2ccccc21  9.52
22. Oc1ccc(I)cc1  9.32
23. OC(CS)CS  9.17
24. NCCNC(=O)c1ccccc1  9.13
25. O=c1cc(-c2ccccc2)oc2ccc(O)cc12  9.09
26. CC(=O)c1cc(C(=O)c2ccccc2)n[nH]1  9.01
27. CC(=O)Sc1ccc(O)cc1  8.88
28. Oc1ccc2c(c1)ncc1ccccc12  8.79
29. CS(=O)c1cccc(O)c1 (stereo unspecified)  8.75
30. N#CSc1ccc(O)cc1  8.57
31. COC(=O)c1ccc(O)cc1  8.34
32. CN(C)c1cccc2c(S(=O)(=O)NCC[NH+](C)C)cccc12  8.33
33. SCC[NH2+]CCc1ccccc1  7.85
34. Clc1ncnc2nc[nH]c12  7.75
35. O=C([O-])c1ccccc1S  7.6
36. COc1ccc(O)c([N+](=O)[O-])c1  7.39
37. CC(Br)[N+](=O)[O-] (stereo unspecified)  7.17
38. CCc1cc(Cl)c(O)c(C(=O)NC[C@H]2CCC[NH+]2CC)c1OC  6.91
39. Cn1cnc2c(N=O)c(O)ccc21  6.76
40. Cc1ccc(C)c(NN=C(C#N)C#N)c1  6.75
41. O=[N+]([O-])Cc1cccc(Cl)c1  6.63
42. CCN(CC)c1nnn[nH]1  6.33
43. Cc1ccc(Br)c(O)c(=O)c1  6.3
44. O=S(=O)(Cc1ccccc1)c1ncn[nH]1  6.23
45. C[n+]1cccc2c(O)cccc21  6.12
46. N#CC(C#N)=NNc1ccccc1O  6.1
47. CC(=O)CC(=O)C(F)(F)F  6.09
48. CNc1nnn[nH]1  6.06
49. [O-]c1cc(O)c2ccccc2[nH+]1  5.86
50. C/C(O)=N\[N+](C)(C)C  5.42
51. CC1c2cc(O)ccc2CC1CC(=O)O (stereo unspecified)  5.3
52. C[C@H](CCC(=O)O)[C@H]1CC[C@H]2[C@@H]3[C@@H](O)C[C@@H]4C[C@H](O)CC[C@]4(C)[C@H]3CC[C@]12C  5.08
53. O=C1C(O)=C(Cc2ccccc2)C(=O)c2ccccc21  4.9
54. O=C(O)[C@@H]1CCC[C@H](O)C1  4.6
55. O=C1C(O)=C(c2ccccc2)C(=O)c2ccccc21  4.35
56. CC(C)N(C(=S)S)C(C)C  4.3
57. NC1=NS(=O)(=O)Nc2nc[nH]c21  4.28
58. COc1cc(C(=O)O)cc(OC)c1O  4.2
59. CCc1cc(C(=O)O)cs1  4.19
60. O=C(O)[C@H]1O[C@H]1C(=O)[O-]  3.92
61. O=C(O)c1cc2ccccc2[nH]1  3.79
62. O=C(O)/C=C\c1cccc(Cl)c1  3.71
63. N#Cc1ccc(C(=O)O)cc1  3.53
64. O=C(O)[C@@H]1CC[C@@H](C(=O)O)[Se]1  3.46
65. O=C(O)c1ccc[se]1  3.43
66. C[NH+]1C[C@H](C(=O)O)C[C@@]2(O)c3cccc4[nH]cc(c34)C[C@@H]12  3.42
67. O=C1C=C(O)C(=O)c2ccccc21  3.19
68. C[N+](C)(C)NC(=O)c1ccc([N+](=O)[O-])cc1  3.11
69. CC(=O)CC(=O)O  3.09
70. Cc1cnc(C(=O)O)s1  3.03
71. O=C(O)[C@@H]1O[C@H](Oc2ccc(Br)cc2)[C@@H](O)[C@H](O)[C@H]1O  3.02
72. CSC(=S)N(C)CC(=O)O  2.98
73. S=C(S)NC1CCCCC1  2.95
74. Fc1cc(F)c(F)c(S)c1F  2.75
75. C/C=C/C#CC(=O)O  2.67
76. CC(C)(C)C#CC(=O)O  2.66
77. NC(=O)[C@H](N)[C@H](O)C(=O)O  2.31
78. O=C1C[C@H](C(=O)O)[C@@H](C(=O)O)O1  2.26
79. C=C(C)[C@H]1C[NH2+][C@H](C(=O)O)[C@H]1CC(N)=O  2.01

Same assay, conditions: basic group

In order of falling pKa:
1. [O-]c1nncc2ccccc12  12
2. C1CNC1  11.3
3. CC(C)N1CCCC1  11.2
4. C[Si](C)(C)CNC1CCCCC1  11
5. C1CCC2CNCCC2C1 (stereo unspecified)  10.9
6. NCCCCNCCCN  10.6
7. C[C@@H]1CCCC[C@@H]1N  10.6
8. CN(C)CCCCCNC(=O)/C=N/[O-]  10.3
9. CCCCCCCN  10.3
10. CC[C@]1(O)C[C@H](C)N[C@@H]2CCCC[C@H]21  10.1
11. [O-]c1ccnc2cccnc12  10
12. CCN(CC)CCCNc1ccnc2ccccc12  10
13. Cc1ccc(CCN)cc1  9.78
14. O=C([O-])CN=C1CCCCC1  9.48
15. Nc1nc(N)nc([O-])n1  9.4
16. C=C1CC1C[C@H](N)C(=O)[O-] (stereo partly specified)  9.37
17. CN(C)Cc1c(C(C)(C)C)cccc1C(C)(C)C  9.2
18. CCN1CCC[C@@H]1CNC(=O)c1c(OC)ccc([N+](=O)[O-])c1[O-]  9.12
19. Cc1ccccc1/C(=N\CCCN(C)C)c1ccccc1Cl  8.95
20. Cn1c(-c2ccccc2[O-])nc2ccccc21  8.92
21. O=C(N[C@@H]1C[C@H]2CC[C@@H](C1)N2Cc1ccccc1)c1cccc2c1OCCO2  8.68
22. CCC(=O)C(CC(C)N(C)C)(c1ccccc1)c1ccccc1 (stereo unspecified)  8.62
23. CN(C)Cc1cc(C(C)(C)C)ccc1O  8.55
24. NC(Cc1c[nH]c(=S)[nH]1)C(=O)[O-] (stereo unspecified)  8.47
25. C/C(=N\c1ccccc1)Nc1ccccc1  8.3
26. [O-]c1c(Cl)c(Cl)cc(Cl)c1CN1CCOCC1  8.23
27. N=C1Cc2ccccc2N1  8.15
28. CCOC(=O)c1cnc2ccc([N+](=O)[O-])cc2c1[O-]  8
29. CN1CCC[C@H]1c1cccnc1  7.85
30. CCOC(=O)CN  7.74
31. COc1ccc2c3c1O[C@H]1CCC[C@H]4[C@@H]([C@H]2O)N(C)CC[C@]314  7.71
32. Nc1ccnc(-c2cccc(Cl)n2)c1  7.7
33. CC[C@H]1[C@H](CC2=N/C(=C/c3[nH]c(C[C@@H]4NC(=O)[C@H](CC)[C@H]4C)c(C)c3CCC(=O)[O-])C(CCC(=O)[O-])=C2C)NC(=O)[C@@H]1C  7.6
34. O=C1C[C@@H]2OCC=C3CN4CC[C@@]56c7ccccc7N1[C@H]5C2[C@@]3(S(=O)(=O)[O-])C[C@H]46 (stereo partly specified)  7.53
35. [S-]c1ncccn1  7.2
36. NC(=O)[C@H](N)[C@H](O)C(=O)O  7.17
37. NNCCO  7.12
38. CCC(=O)C(CCN1CCOCC1)(c1ccccc1)c1ccccc1  6.98
39. N[C@H]1C[C@@H]2CCCC[C@H]2C[C@@H]1[NH3+]  6.97
40. C=CCN(CC=C)CCC[NH+](CC=C)CC=C  6.96
41. Nc1ccccn1  6.95
42. c1c(CN2CCNCC[NH2+]CC2)n[nH]c1CN1CCNCC[NH2+]CC1  6.8
43. [NH3+]CC(=O)NCCc1c[nH]cn1  6.76
44. Cc1c([N+](=O)[O-])ccc2c(NCCC[NH+](C)C)ccnc12  6.71
45. N[C@H]1CCCC[C@@H]1[NH3+]  6.71
46. CN1CCCCCN1C  6.66
47. [S-]c1ncc2nccnc2n1  6.52
48. Cc1cc(C)c2ccc3c(C)cc(C)nc3c2n1  6.5
49. Cc1nc2ccccc2[nH]1  6.3
50. CN/C=[NH+]/c1cccc(-c2csc(N=C(N)N)n2)c1  6.29
51. c1ccc(-c2ccc3nc(CN4CCOCC4)cn3n2)cc1  6.25
52. CCN(CC)CC[NH+](CC)CC  6.18
53. Cc1cnc2ccc(C)c([N+](=O)[O-])c2c1NCCC[NH+](C)C  6.07
54. CC(C)c1ccncc1  6.02
55. CCc1ccccn1  5.98
56. N#CC1CC2CCN1CC2 (stereo unspecified)  5.85
57. C(=C\c1ccncc1)/c1ccncc1  5.82
58. C=Cc1ccc(C)nc1  5.67
59. c1ccc2c(c1)CCN2  5.49
60. CCC(C)Nc1ccccc1 (stereo unspecified)  5.47
61. CC[NH+](CC)CCNc1cc(Nc2ccc(Cl)cc2)nc(C)n1  5.42
62. Cc1cc(C)c2ccccc2n1  5.11
63. CNc1nc(C)nc2nc[nH]c12  5.08
64. C=CC(C)(C)Nc1ccccc1  4.88
65. Oc1ccc2c(c1)ncc1ccccc12  4.82
66. Cc1ccc2nc3ccc(N)cc3nc2c1  4.8
67. Nc1cccc(C(=O)[O-])c1  4.7
68. Nc1ccc(F)cc1  4.64
69. Cc1nc(N(C)C)nc(OC(=O)N(C)C)c1C  4.53
70. c1ccc(-c2nc3ccccc3[nH]2)nc1  4.41
71. C[NH+](C)CCNCC[NH3+]  4.36
72. C/C(=C(/S)CCO)N(C=O)Cc1cnc(C)nc1N  4.19
73. COc1cc(N)c(C#N)c(N)n1  4.17
74. c1cnc2ccc3ncccc3c2c1  4
75. CN(C)c1cccc2c(S(=O)(=O)NCC[NH+](C)C)cccc12  3.57
76. Nc1cc[nH+]c([S-])n1  3.32
77. Cn1cnc2c(N=O)c(O)ccc21  3.31
78. Nc1n[nH]c2ccccc12  3.15
79. O=Cc1ccc2ccccc2n1  3.1
80. NC(=N\O)/C(N)=N/O  2.97
81. CC[NH+](CC)CCN=C(c1ccccc1C)c1ccccc1C  2.8
82. c1ccc2c(c1)NCC[NH2+]2  2.11
83. Cn1cnc(=O)c(-c2ccccc2)c1  1.99
84. [S-]c1nccc[nH+]1  1.3
85. c1ccc(-n2cccn2)nc1  1.07
86. O=[N+]([O-])c1cccc2[nH]ncc12  0.42
87. NC1=NS(=O)(=O)Nc2nc[nH]c21  0.28
88. O=C(O)c1cc2ccccc2[nH]1  -0.57
89. Cc1ccc(C)c(NN=C(C#N)C#N)c1  -0.84
90. c1ccc(N=P(c2ccccc2)(c2ccccc2)c2ccccc2)cc1  -0.92
91. Cc1ccc(S(=O)C(C)(C)C)cc1 (stereo unspecified)  -2.2
92. CN(C)C(=S)c1ccccc1  -2.3
